Four molecules from patent US20160355530A1, “HEPATITIS C INHIBITORS AND USES THEREOF” (AbbVie Inc., priority 2010, published 2016) can be followed below.

Assay [1] concerns the target T1, HCV NS5B polymerase 1b BK strain (Hepatitis C virus genotype 1b, UniProt P26663).
T1 construct: six-histidine tag; made in house; host or cells: E. coli
Briefly: HCV NS5B polymerase enzymatic inhibition assay, strain 1b BK. The assay is classed as biochemical. The following applies: enzyme, strain 1b BK; read-out: HCV Polymerase Strain 1b BK IC50. The method in brief:
(§1)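 Incorporation of [3H]UTP (0.284 μM), alongside 20 μM each CTP and ATP, into RNA copied from a 5 nM 2.1 kb genotype 1b negative-strand template was measured after 3 h at 30° C using purified His-tagged NS5B truncated at residue 570. Product was spermine-precipitated, filtered and scintillation-counted; nonlinear regression gave IC50.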

Assay [2] deals with HCV 1a-H77 subgenomic replicon. The assay is described as follows: microbe, parasite or virus in culture. The assay is classed as cell-based, HCV genotype 1a. The conditions noted are these: Hepatitis C virus, stable replicon. In general terms: In antiviral work, replicon cells carry a viral genome segment that copies itself.
Assay [3] relates to HCV 1a-H77 C316Y mutant subgenomic replicon. Briefly: Stable replicon cell culture assay (luciferase), 1a-H77-C316Y mutant. The assay is classed as cell-based, HCV genotype 1a. The following applies: for EC50: Hepatitis C virus, read-out: Stable Replicon 1a H77-C316Y 5% FBS EC50; for Stable Replicon Fold Resistance C316Y/1a: ratio of stable replicon EC50s, C316Y / 1a H77.
The test system of assay [4] is HCV 1b-Con1 subgenomic replicon. The assay is described as follows: Stable replicon cell culture assay (luciferase), 1b-Con1; 5% FBS, optionally 40% human plasma. The assay is classed as cell-based, HCV genotype 1b. The conditions noted are these: Hepatitis C virus.
The test system of assay [5] is HCV NS5B polymerase 1a-H77-C316Y. Briefly: biochemical. Details: species or system HCV genotype 1a. The following applies: ratio of enzyme IC50s, 1a H77-C316Y / 1a H77. The method in brief:
as §1

Assay [6] has as its target T2, HCV NS5B polymerase 1a-H77-C316Y (Hepatitis C virus genotype 1a, UniProt P27958, C2736Y).
T2 construct: six-histidine tag; made in house; host or cells: E. coli
Briefly: biochemical. Also noted: species or system HCV genotype 1a. The method in brief:
as §1

For assay [7], the target named is T3, HCV NS5B polymerase 1a-H77 (Hepatitis C virus genotype 1a, UniProt P27958).
T3 construct: six-histidine tag; made in house; host or cells: E. coli
The assay is described as follows: biochemical. Details: species or system HCV genotype 1a. The following applies: enzyme, strain 1a H77; read-out: HCV Polymerase Strain 1a H77 IC50. The gist of the method: as §1

The test system of assay [8] is chimeric replicon with genotype 4a NS5B. The assay is described as follows: microbe, parasite or virus in culture. Type of assay: cell-based, HCV genotype 4a. The conditions noted are these: Hepatitis C virus, read-out: 4a chimera 5% FBS EC50.
In assay [9] the test system is HCV 1a-H77-C316Y transient subgenomic replicon in Huh-7 derived cell line. Briefly: microbe, parasite or virus in culture. The assay is classed as cell-based, HCV genotype 1a. The conditions noted are these: for EC50: Hepatitis C virus, Huh-7, read-out: Transient Replicon 1a H77-C316Y 5% FBS EC50; for Transient Replicon Fold Resistance C316Y/1a: ratio of transient replicon EC50s, C316Y / 1a H77. The gist of the method: (§2)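 Subgenomic replicon RNA (no Neo gene) electroporated into Huh-7-derived cells, plated at 5×10^3 cells/well; a 4 h plate gauged transfection efficiency. Cells exposed to 3-fold compound dilutions (0.5% DMSO) for 4 days at 37° C, then lysed for luciferase readout; EC50 calculated.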

Assay [10] deals with HCV 1a-H77 transient subgenomic replicon in Huh-7 derived cell line. Briefly: microbe, parasite or virus in culture. The assay is classed as cell-based, HCV genotype 1a. The following applies: Hepatitis C virus, Huh-7; transient replicon, 5% FBS; read-out: Transient Replicon 1a H77 5% FBS EC50. The gist of the method: as §2
Assay [11] relates to chimeric replicon with genotype 3a NS5B. Briefly: microbe, parasite or virus in culture. The conditions noted are these: Hepatitis C virus, read-out: 3a chimera 5% FBS EC50. Type of assay: cell-based, HCV genotype 3a.
Assay [12] has as its system chimeric replicon with genotype 2b NS5B. Briefly: microbe, parasite or virus in culture. The conditions noted are these: Hepatitis C virus, read-out: 2b chimera 5% FBS EC50. The assay is classed as cell-based, HCV genotype 2b.
The target in assay [13] is T4, HCV NS5B polymerase 1b Rice (Hepatitis C virus genotype 1b, UniProt Q9WMX2).
T4 construct: six-histidine tag; made in house; host or cells: E. coli
The assay is described as follows: HCV NS5B polymerase enzymatic inhibition assay, strain 1b Rice. The assay is classed as biochemical, HCV genotype 1b. The conditions noted are these: enzyme. The procedure: Purified HCV NS5B polymerase enzymes were used for polymerase inhibition assays. All recombinant HCV polymerases contained the first 570 amino acids of the 591 amino acid native protein sequence and a six-histidine tag at the N-terminus or C-terminus to facilitate purification by affinity chromatography. The DNA nucleotide sequence for the HCV polymerase 1b BK strain was codon optimized for expression in E. coli. A synthetic gene was prepared from a series of overlapping oligonucleotides that were filled in using a DNA polymerase and amplified by PCR. The patient isolate HCV polymerases were cloned by RT-PCR methods using HCV RNA extracted from the serum of infected subjects obtained from ProMedDx and BioCollections (genotypes 2a, 2b, 3a, and 4a). Laboratory strains were cloned from plasmid DNA (1a-H77 or 1a-H77-C316Y) or from existing replicon cells (1b Rice). In all cases the amplified DNA was cloned into a protein expression vector (typically a pET vector from Novagen) and then multiple clones were sequenced to identify one whose NS5B sequence agreed with the population sequence. This sequence-confirmed clone was then transfected into E. coli for protein expression and purification. E. coli cultures were grown to a maximum optical density (OD) of 2-3 and then induced with 0.4 mM isopropyl beta-D-thiogalactopyranoside (IPTG) and grown for 20 hours at 20° C.
Proteins were purified using nickel affinity chromatography, and additional column steps were added including, ion exchange, size exclusion, hydrophobic ion, and poly-U affinity chromatography, as needed, depending on the sample being purified. The template RNA used in the polymerase enzymatic assay was a 2.1 kb construct that corresponds to the 3′-end of an HCV genotype 1b negative strand RNA.
The reaction was initiated by the addition of 20 μM CTP, 20 μM ATP, 0.284 μM (0.5 μCi) of 5,6-[^3H] UTP, 5 nM template RNA and 0.1 U/μL RNase inhibitor (RNasin, Promega), and allowed to proceed for three hours at 30° C. The final reaction volume was 50 μL. The reaction was terminated by the addition of 50 uL of 4 mM spermine in 10 mM Tris-HCl, pH 7.5, 1 mM EDTA. The quenched reaction was allowed to incubate for at least 15 minutes at room temperature, and then the precipitated RNA was captured by filtration through a glass fiber filter (GF/B, Millipore) in a 96 well format. The filter plate was washed five times with 200 μL of 2 mM spermine, 10 mM Tris-HCl, pH 8.0, 1 mM EDTA, and two times with ethanol. After drying thoroughly in air, 30 μL of Microscint-20 scintillation cocktail (Perkin Elmer) was added to each well, and the retained cpm were determined by scintillation counting. IC50 values were determined by nonlinear regression.
% Inhibition=100*[[I]/([I]+[IC50])] equation 1
V=kcat[S]/2(Km+[S])*(sqrt((IC50+I−E)̂2+(4*IC50*E))−(IC50+I−E)) equation 2

The subject of assay [14] is chimeric replicon with 2a-J6CF-derived NS5B. Briefly: microbe, parasite or virus in culture. The assay is classed as cell-based, HCV genotype 2a. The following applies: Hepatitis C virus, read-out: 2a chimera 5% FBS EC50.
The mark [15] stands for this setting: 5% FBS, absence of human plasma, read-out: Stable Replicon 1a H77 5% FBS EC50.
The mark [16] stands for this setting: strain 1a H77, 5% FBS + 40% human plasma, read-out: 1a H77 5% FBS + 40% Human Plasma EC50.
The mark [17] stands for this setting: strain 1a H77, 5% FBS, no human plasma, read-out: 1a H77 5% FBS EC50.
Where [18] appears, read: strain 1a H77, 5% FBS, read-out: 1a H77 5% FBS EC50.
Where [19] appears, read: strain 1b Con1, 5% FBS + 40% human plasma, read-out: 1b Con1 5% FBS + 40% Human Plasma EC50.
[20] abbreviates: strain 1b Con1, 5% FBS, no human plasma, read-out: 1b Con1 5% FBS EC50.
The mark [21] stands for this setting: strain 1b Con1, 5% FBS, read-out: 1b Con1 5% FBS EC50.

The structures appear in SMILES notation. Read-outs that look alike come from different tables or passages of the source.

T3 sequence (P27958 2421-2990): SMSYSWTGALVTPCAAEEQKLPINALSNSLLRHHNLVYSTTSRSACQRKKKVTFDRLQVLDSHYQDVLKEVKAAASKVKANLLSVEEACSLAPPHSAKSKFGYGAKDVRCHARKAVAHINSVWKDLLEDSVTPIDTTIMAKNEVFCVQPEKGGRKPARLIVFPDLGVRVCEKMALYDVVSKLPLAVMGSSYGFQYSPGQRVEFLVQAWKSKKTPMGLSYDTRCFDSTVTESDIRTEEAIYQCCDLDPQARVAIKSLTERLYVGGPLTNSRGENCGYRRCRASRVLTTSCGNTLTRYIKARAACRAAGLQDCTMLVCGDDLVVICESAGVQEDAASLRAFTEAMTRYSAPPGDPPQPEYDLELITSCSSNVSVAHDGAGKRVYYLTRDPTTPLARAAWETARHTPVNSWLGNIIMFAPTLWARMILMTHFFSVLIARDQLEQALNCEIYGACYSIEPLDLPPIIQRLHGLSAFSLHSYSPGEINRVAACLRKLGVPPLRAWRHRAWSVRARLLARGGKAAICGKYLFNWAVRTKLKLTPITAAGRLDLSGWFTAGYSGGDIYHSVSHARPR
T1 sequence (P26663 2420-2989): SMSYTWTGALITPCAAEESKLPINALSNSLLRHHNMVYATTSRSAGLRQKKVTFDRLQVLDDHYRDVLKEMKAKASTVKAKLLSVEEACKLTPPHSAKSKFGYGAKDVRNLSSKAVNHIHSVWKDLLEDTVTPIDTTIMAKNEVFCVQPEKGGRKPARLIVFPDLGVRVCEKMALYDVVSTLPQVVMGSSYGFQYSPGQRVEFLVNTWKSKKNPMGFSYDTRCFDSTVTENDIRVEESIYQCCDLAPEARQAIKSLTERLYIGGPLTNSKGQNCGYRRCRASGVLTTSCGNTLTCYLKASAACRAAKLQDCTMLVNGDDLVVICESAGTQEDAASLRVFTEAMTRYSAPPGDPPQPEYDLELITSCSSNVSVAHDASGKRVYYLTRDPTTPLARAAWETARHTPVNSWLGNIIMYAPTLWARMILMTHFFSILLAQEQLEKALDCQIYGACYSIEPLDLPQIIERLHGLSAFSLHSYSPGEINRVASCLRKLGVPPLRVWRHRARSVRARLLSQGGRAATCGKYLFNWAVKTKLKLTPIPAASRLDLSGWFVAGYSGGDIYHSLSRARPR
T2 sequence (P27958 2421-2990 C2736Y): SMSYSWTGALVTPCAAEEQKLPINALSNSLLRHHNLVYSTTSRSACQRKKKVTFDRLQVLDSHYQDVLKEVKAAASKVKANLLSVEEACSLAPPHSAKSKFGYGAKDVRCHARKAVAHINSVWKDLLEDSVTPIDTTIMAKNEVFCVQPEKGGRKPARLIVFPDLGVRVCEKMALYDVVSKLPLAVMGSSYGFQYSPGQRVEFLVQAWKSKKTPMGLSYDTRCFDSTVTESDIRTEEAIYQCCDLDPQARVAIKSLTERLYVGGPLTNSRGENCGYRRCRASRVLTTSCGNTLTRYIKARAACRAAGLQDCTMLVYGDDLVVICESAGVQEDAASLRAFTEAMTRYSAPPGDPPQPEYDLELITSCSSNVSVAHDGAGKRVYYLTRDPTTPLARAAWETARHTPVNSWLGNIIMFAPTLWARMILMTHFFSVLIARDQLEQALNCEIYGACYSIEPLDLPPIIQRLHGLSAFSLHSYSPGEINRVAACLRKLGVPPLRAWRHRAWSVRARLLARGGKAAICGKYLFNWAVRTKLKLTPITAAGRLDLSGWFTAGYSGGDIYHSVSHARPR

As a reminder, the IC50 is the concentration that gives 50% inhibition. A word on the EC50: it is the midpoint of the concentration-response curve. For `CC(C)CCN(c1cc2oc(-c3ccc(Nc4ccccc4)cc3)c(-c3ncc[nH]3)c2cc1C1CC1)S(C)(=O)=O` [Example 18, N-[2-(4-anilinophenyl)-5-cyclopropyl-3-(1H-imidazol-2-yl)-1-benzofuran-6-yl]-N-(3-methylbutyl)methanesulfonamide], the IC50 in [1] was found to be 85.6 nM; in assay [6], 101 nM; in assay [7], 25.8 nM; in assay [13], 30.4 nM. The EC50 in assay [2] (setting [15]) is 5.4 nM; in assay [2] (setting [16]), 234 nM; in assay [2] (setting [17]), 5.4 nM; in assay [2] (setting [18]) it was 5.4 nM; in assay [3], 3.8 nM; in assay [4] (setting [19]), 602 nM. Further, the EC50 came to 9.5 nM in [4] (setting [20]); 9.5 nM in [4] (setting [21]); 9.4 nM in [8]; 0.3 nM in assay [9]; 0.7 nM in assay [10]; 12.3 nM in assay [11]. Also, the EC50 in assay [12] worked out at 13 nM. For the same molecule, in [3], the “Stable Replicon Fold Resistance C316Y/1a” value was 0.711 fold. The “C316Y/1a Fold Resistance” value in assay [5] was found to be 4 fold. Further, the “Transient Replicon Fold Resistance C316Y/1a” value in [9] was 0.4 fold.
With `COc1ccc(-c2nn3ccc(-c4cc(C(=O)NC5(c6ccccc6)CC5)ccc4C)cc3c2C2=NOCCN2)cc1` [Example 19, 3-[3-(5,6-dihydro-4H-1,2,4-oxadiazin-3-yl)-2-(4-methoxyphenyl)pyrazolo[1,5-a]pyridin-5-yl]-4-methyl-N-(1-phenylcyclopropyl)benzamide], the 50% inhibitory concentration (IC50) in assay [1] came to 150 nM; in [6], 457 nM; in [7] it was 4 nM; in assay [13], 7.2 nM. The EC50 turned out to be 33.2 nM in assay [2] (setting [15]); 444 nM in [2] (setting [16]); 33.2 nM in assay [2] (setting [17]); 33.2 nM in assay [2] (setting [18]); 1320 nM in assay [3]; 86.8 nM in assay [4] (setting [19]). The EC50 was determined as 6.7 nM in assay [4] (setting [20]), 6.7 nM in assay [4] (setting [21]), 20.2 nM in [8] and 140 nM in assay [14]. Further, the “Stable Replicon Fold Resistance C316Y/1a” value in [3] is given as 41.0 fold. Besides, the “C316Y/1a Fold Resistance” value in assay [5] stood at 115 fold.
As to `C=C(c1ccccc1)c1ccc(-c2oc3cc(N(CCC(C)C)S(C)(=O)=O)c(C4CC4)cc3c2-c2ncc[nH]2)cc1` [Example 167, N-{5-cyclopropyl-3-(1H-imidazol-2-yl)-2-[4-(1-phenylvinyl)phenyl]-1-benzofuran-6-yl}-N-(3-methylbutyl)methanesulfonamide], the IC50 in assay [1] came to 160 nM; in [6], 7900 nM; in [7], 49.2 nM; in assay [13], 61.6 nM. For the same molecule, the “C316Y/1a Fold Resistance” value in [5] is recorded as 161 fold. The EC50 in [9] is 6.11 nM; in assay [10] it was 8.1 nM. Moreover, the “Transient Replicon Fold Resistance C316Y/1a” value in assay [9] was found to be 1 fold.
Turning to `COc1ccc(-c2nn3ccc(-c4cc(C(=O)NC5(c6ccccc6)CC5)ccc4C)cc3c2-c2ncc[nH]2)cc1` [Example 191, 3-[3-(1H-imidazol-2-yl)-2-(4-methoxyphenyl)pyrazolo[1,5-a]pyridin-5-yl]-4-methyl-N-(1-phenylcyclopropyl)benzamide], the figures for the half-maximal inhibitory concentration (IC50) in assay [7] and in assay [13] were 12 nM and 8.4 nM, respectively. Besides, in assay [8], the EC50 stood at 17.6 nM.
